Assay results published in patent publication US6423689B1, “Peptidyl calcium channel blockers” (Warner-Lambert Company, priority 1997, dated 2002).

Tests used:
[1] = biological target: T1, N-type Ca2+ channels in superior cervical ganglion (SCG) neurons (Rattus norvegicus, UniProt Q02294); experiment: Whole-cell voltage clamp, N-type Ca2+ current in SCG neurons; format: cell-based
T1 construct: from tissue
Procedure: (§1) Electrophysiological techniques were used to measure the effects of experimental compounds on voltage-gated Ca^2+, Na^+ and K^+ channels. […] Sodium and potassium channel currents were measured from acutely dissociated SCG neurons.
(§2) Dissociation of the neurons from the ganglia was accomplished using a 30 to 45 minute treatment in 0.25% trypsin, similar to methods outlined in Higgins, et al. [see Higgins D., et al. “Tissue culture of mammalian autonomic neurons.” In Banker G. and Goslin K. (Eds), Culturing Nerve Cells, Cambridge, Mass., MIT Press (1991)].
(§3) Ca^2+, Na^+ and K^+ channel currents in SCG neurons were measured using conventional single electrode whole-cell voltage-clamp techniques, outlined in Hamill, et al., (see Hamill O.P., et al. “Improved patch-clamp techniques for high resolution current recordings from cells and cell-free membrane patches”. Pflugers Arch. 1981;391:85-100) For Ca^2+ channel experiments, the external bathing solution contained tetraethylammonium chloride (100 mM), choline chloride (52 mM), NaCl (15 mM), HEPES (10 mM), glucose (5.6 mM), CaCl2 (2 mM), and MgCl2 (0.8 mM) pH 7.35 with KOH; with the internal pipette solution containing cesium methane sulfonate (140 mM), EGTA (10 mM), and HEPES (10 mM), supplemented with 5 mM Mg^2+ -ATP on the day of the experiment, pH 7.4 with CsOH. For Na^+ and K^+ channel experiments, the external bathing solution contained NaCl (150 mM), KCl (5 mM), MgCl2 (1.1 mM), CaCl2 (2.6 mM), Na-HEPES (10 mM), and glucose (10 mM), pH 7.4; with the internal pipette solution containing KCl (80 mM), K-gluconate (50 mM), HEPES (10 mM), and EGTA (10 mM), pH 7.4 with KOH. Experimental compounds were diluted into the external solution and applied to the soma of cells by local perfusion from large diameter (20-50 μm) glass micropipettes or from a U-tube applicator.
After obtaining a whole-cell recording, Ca^2+ channels were elicited by stepping to test potentials between −40 and +20 mV for 120 msec from the holding potential of −90 mV to determine if the amplitude of the current and clamp control were adequate for evaluation of drug effects. Ca^2+ channel currents were evoked by stepping from a holding potentials between −65 mV and −−55 mV to a test potential of +20 mV for 150 msec every 40 seconds. The amplitude of the Ca^2+ channel currents were compared before and during drug application and drug effects expressed as percent inhibition of the amplitude of control currents.

[2] = biological target: T2, N-type Ca2+ channels in IMR-32 cells (Homo sapiens, UniProt Q00975); experiment: Inhibition of N-type calcium flux in IMR-32 cells (Indo-1 fluorescence, nitrendipine present); format: cell-based; settings: for IC50: IMR-32 cells, 5 μM nitrendipine, K+ depolarization
T2 construct: host or cells: IMR-32 cells, differentiated with dibutyryl cAMP and bromodeoxyuridine
T2 sequence (Q00975 whole entry): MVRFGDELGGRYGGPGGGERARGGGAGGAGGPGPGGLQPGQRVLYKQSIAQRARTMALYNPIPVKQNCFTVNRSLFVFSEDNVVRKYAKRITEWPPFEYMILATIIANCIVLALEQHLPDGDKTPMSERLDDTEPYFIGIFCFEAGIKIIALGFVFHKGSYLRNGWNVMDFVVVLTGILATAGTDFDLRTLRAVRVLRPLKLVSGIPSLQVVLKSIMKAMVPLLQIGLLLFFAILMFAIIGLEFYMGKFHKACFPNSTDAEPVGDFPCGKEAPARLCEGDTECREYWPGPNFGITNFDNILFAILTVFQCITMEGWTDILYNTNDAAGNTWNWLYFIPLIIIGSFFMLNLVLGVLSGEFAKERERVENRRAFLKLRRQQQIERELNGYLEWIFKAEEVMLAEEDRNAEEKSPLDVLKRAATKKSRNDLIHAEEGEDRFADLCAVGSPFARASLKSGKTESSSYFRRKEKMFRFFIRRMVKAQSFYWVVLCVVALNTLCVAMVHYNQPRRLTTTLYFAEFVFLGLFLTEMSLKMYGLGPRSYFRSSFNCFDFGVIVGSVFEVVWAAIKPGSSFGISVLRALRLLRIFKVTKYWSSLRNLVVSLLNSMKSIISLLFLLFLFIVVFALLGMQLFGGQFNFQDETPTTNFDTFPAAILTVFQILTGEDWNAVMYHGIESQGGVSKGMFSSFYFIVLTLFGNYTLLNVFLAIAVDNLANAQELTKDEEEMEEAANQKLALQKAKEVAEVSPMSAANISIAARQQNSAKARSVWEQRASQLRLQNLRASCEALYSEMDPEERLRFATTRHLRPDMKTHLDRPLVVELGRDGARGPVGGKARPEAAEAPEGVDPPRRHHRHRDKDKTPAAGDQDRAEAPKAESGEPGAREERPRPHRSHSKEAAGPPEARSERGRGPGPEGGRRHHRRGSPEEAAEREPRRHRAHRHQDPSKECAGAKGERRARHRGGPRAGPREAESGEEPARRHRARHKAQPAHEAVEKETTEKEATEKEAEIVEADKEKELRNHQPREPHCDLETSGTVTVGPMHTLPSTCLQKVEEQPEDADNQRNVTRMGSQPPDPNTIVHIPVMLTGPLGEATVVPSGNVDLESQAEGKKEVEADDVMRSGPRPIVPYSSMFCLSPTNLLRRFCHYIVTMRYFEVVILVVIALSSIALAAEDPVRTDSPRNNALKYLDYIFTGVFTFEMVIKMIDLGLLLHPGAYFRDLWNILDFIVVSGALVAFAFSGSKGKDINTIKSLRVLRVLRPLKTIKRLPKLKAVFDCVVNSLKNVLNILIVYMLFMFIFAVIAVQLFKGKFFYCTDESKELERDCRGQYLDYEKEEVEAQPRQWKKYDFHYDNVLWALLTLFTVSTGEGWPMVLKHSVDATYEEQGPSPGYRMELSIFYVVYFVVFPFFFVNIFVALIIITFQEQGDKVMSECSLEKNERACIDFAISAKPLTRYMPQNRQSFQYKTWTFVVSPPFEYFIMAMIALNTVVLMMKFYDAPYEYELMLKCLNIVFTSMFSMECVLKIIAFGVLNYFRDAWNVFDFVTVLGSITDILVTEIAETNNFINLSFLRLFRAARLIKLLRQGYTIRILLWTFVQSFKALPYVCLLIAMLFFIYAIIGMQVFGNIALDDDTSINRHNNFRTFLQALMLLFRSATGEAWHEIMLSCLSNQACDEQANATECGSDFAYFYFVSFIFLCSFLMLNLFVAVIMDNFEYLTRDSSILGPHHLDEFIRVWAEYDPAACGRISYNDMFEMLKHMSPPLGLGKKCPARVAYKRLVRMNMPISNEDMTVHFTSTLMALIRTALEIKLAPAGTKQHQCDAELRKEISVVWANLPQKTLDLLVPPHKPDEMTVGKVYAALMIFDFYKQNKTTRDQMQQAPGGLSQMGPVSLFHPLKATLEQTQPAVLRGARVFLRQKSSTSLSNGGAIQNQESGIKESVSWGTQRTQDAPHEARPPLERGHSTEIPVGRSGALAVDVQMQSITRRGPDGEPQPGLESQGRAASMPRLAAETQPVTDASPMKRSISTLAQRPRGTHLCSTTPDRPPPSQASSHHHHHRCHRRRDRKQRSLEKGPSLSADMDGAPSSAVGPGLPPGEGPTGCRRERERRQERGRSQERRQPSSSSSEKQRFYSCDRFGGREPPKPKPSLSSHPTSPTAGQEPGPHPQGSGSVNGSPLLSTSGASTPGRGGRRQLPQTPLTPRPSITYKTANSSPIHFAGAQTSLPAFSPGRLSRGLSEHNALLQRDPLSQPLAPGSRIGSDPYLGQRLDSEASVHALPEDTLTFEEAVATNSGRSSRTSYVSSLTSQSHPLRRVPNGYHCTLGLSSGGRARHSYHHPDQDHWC
T2 sequence (P54289 25-956 partner limits assumed): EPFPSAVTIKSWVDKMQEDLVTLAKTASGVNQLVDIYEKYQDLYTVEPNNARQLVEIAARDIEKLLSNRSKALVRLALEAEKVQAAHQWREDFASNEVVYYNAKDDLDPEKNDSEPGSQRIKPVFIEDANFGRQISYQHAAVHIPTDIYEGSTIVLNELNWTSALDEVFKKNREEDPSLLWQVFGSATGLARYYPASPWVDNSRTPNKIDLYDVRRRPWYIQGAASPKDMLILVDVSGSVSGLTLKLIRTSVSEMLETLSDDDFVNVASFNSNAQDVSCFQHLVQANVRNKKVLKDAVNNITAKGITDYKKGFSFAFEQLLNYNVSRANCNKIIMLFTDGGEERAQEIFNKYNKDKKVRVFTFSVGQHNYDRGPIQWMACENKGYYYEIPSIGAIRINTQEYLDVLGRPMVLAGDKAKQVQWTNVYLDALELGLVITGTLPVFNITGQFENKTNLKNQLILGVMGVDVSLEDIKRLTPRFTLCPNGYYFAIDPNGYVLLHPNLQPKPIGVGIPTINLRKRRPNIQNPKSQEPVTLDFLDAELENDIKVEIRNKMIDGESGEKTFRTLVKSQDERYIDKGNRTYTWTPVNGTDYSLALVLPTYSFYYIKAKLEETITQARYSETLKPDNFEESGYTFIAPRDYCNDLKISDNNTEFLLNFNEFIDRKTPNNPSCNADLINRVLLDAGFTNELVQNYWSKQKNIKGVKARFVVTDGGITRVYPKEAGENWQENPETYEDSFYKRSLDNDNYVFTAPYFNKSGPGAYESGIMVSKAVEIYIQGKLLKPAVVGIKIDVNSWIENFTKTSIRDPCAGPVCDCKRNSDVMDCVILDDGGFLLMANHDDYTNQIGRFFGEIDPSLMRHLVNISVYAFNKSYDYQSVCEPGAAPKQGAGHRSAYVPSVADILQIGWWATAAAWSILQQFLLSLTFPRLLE
T2 sequence (P54289 957-1103 partner limits assumed): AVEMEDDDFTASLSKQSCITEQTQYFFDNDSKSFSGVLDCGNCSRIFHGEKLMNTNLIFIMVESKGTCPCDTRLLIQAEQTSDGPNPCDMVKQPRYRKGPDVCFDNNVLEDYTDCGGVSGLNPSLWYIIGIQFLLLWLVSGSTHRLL
T2 sequence (P54284 whole entry partner): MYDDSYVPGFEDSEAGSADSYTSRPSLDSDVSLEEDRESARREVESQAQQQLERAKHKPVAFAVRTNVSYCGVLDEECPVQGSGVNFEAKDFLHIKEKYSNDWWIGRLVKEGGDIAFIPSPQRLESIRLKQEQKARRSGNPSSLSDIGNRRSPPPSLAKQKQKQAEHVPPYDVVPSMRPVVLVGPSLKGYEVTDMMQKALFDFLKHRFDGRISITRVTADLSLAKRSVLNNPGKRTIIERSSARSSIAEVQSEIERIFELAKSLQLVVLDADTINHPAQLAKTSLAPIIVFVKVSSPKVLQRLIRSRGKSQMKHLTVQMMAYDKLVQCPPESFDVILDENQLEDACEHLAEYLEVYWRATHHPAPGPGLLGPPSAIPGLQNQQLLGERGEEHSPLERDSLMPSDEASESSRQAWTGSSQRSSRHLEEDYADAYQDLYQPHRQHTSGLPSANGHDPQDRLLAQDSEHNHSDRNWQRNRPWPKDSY
Procedure, shortened: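 With L-type flux blocked by 5 μM nitrendipine, N-type Ca2+ entry was read as the Indo-1 emission ratio (400/490 nm, excitation 350 nm) at 30° C after KCl depolarization.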

[3] = system: K+ channels in superior cervical ganglion (SCG) neurons; experiment: Whole-cell voltage clamp, K+ current in SCG neurons; format: cell-based, rat
Procedure: as §1, §2, §3
(§4) For Na^+ and K^+ channel currents, following the determination of the I/V relationship for each cell in control solution, currents were evoked from a holding potential between −65 and −55 mV by stepping every 10 sec to a test potential of either 0 mV for Na^+ or +50 mV for K^+ current for a duration of 35 msec. Peak inward current was measured for Na^+ and sustained current for K^+ channel currents. […] Test compounds were applied until steady-state block was achieved. Data were expressed as percent inhibition of control amplitudes for Na^+ and K^+ channel currents.

[4] = system: Na+ channels in superior cervical ganglion (SCG) neurons; experiment: Whole-cell voltage clamp, Na+ current in SCG neurons; format: cell-based, rat
Procedure: as §1, §2, §3, §4

| Compound | Inhibition of N-type Ca2+ Current, % Inhibition at 10 μM ([1]; 10 μM) | IC50 [2] | Inhibition of K+ Current, % Inhibition at 10 μM [3] | Inhibition of Na+ Current, % Inhibition at 10 μM [4] | other results |
| --- | --- | --- | --- | --- | --- |
| C[C@H](NC(=O)N1CCCCCC1)C(=O)N[C@@H](Cc1ccc(OCc2ccccc2)cc1)C(=O)OC(C)(C)C (relative stereo) [Example 7, [S-(R*,R*)]-2-{2-[(Azepane-1-carbonyl)-amino]-propionylamino}-3-(4-benzyloxy-phenyl)-propionic acid tert-butyl ester] | 81% | 1500 nM | 70% | 52% | IC50 ([1]; read-out: Inhibition of N-type Ca2+ Current IC50): 2300 nM; Inhibition of Calcium Flux in IMR-32 Cells % Inhibition at 1 μM [2]: 44%; Inhibition of Calcium Flux in IMR-32 Cells % Inhibition at 10 μM [2]: 96% |
| CC(C)C[C@H](NC(=O)N1CCN(C)CC1)C(=O)N[C@@H](Cc1ccc(OCc2ccccc2)cc1)C(=O)OC(C)(C)C (relative stereo) [Example 9, [S-(R*,R*)]-3-(4-Benzyloxy-phenyl)-2-{4-methyl-2-[(4-methyl-piperazine-1-carbonyl)-amino]-pentanoylamino}-propionic acid tert-butyl ester] | 81% |  | 61% | 44% | Inhibition of Calcium Flux in IMR-32 Cells % Inhibition at 1 μM [2]: 28% |
| CC(C)C[C@H](NS(=O)(=O)c1ccc([N+](=O)[O-])cc1)C(=O)N[C@@H](Cc1ccc(OCc2ccccc2)cc1)C(=O)OC(C)(C)C (relative stereo) [Example 39, [S-(R*,R*)]-3-(4-Benzyloxy-phenyl)-2-[4-methyl-2-(4-nitro-benzenesulfonylamino)-pentanoylamino]-propionic acid tert-butyl ester] |  | 520 nM | 22% | 28% | Inhibition of Calcium Flux in IMR-32 Cells % Inhibition at 1 μM [2]: 61%; Inhibition of Calcium Flux in IMR-32 Cells % Inhibition at 10 μM [2]: 91% |
| CCCCNC(=S)N[C@@H](CC(C)C)C(=O)N[C@@H](Cc1ccc(OCc2ccccc2)cc1)C(=O)OC(C)(C)C (relative stereo) [Example 49, [S-(R*,R*)]-3-(4-Benzyloxy-phenyl)-2-[2-(3-butyl-thioureido)-4-methyl-pentanoylamino]-propionic acid tert-butyl ester] | 45% | 270 nM | −3% | 6% | Inhibition of Calcium Flux in IMR-32 Cells % Inhibition at 1 μM [2]: 77%; Inhibition of Calcium Flux in IMR-32 Cells % Inhibition at 10 μM [2]: 99% |
| CC(C)C[C@H](NC(=O)c1ccccc1)C(=O)N[C@@H](Cc1ccc(OCc2ccccc2)cc1)C(=O)OC(C)(C)C (relative stereo) [Example 130, [S-(R*,R*)]-2-(2-Benzoylamino-4-methyl-pentanoylamino)-3-(4-benzyloxy-phenyl)-propionic acid tert-butyl ester] | −7% |  |  |  | Inhibition of Calcium Flux in IMR-32 Cells % Inhibition at 10 μM [2]: 78% |
| CC(C)(C)NC(=O)[C@H](Cc1ccc(OCc2ccccc2)cc1)NC(=O)[C@@H]1CC2CCCCC2N1C(=O)N1CCCCCC1 (relative stereo) [Example 161, [S-(R*,R*)]-1-(Azepane-1-carbonyl)-octahydro-indole-2-carboxylic acid [2-(4-benzyloxy-phenyl)-1-tert-butylcarbamoyl-ethyl]-amide] | 61% | 2500 nM | 68% | 42% | IC50 ([3]; read-out: Inhibition of K+ Current IC50): 5450 nM; IC50 ([4]; read-out: Inhibition of Na+ Current IC50): 14000 nM |
| CC(C)C[C@H](NC(=O)N1CCCCCC1)C(=O)N[C@@H](Cc1ccc(OCc2ccccc2)cc1)C(=O)NCCc1ccco1 [Example 174, [S-(R*,R*)]-Azepane-1-carboxylic acid {1-[2-(4-benzyloxy-phenyl)-1-(2-furan-2-ylethylcarbamoyl)-ethylcarbamoyl]-3-methyl-butyl}-amide] |  | 1400 nM | 32% | 14% |  |
| CC(C)C[C@H](NC(=O)N1CCCCCC1)C(=O)N[C@@H](Cc1ccc(OCc2ccccc2)cc1)C(=O)N[C@H]1CCN(Cc2ccccc2)C1 [Example 194, Azepane-1-carboxylic acid {(S)-1-[(S)-2-(4-benzyloxy-phenyl)-1-[1-benzyl-(S)-pyrrolidin-3-ylcarbamoyl]-ethylcarbamoyl]-3-methyl-butyl}-amide] |  | 450 nM |  |  | inhibition at 10 µM ([1]; 10 μM): 84% |

Second part, led by results:

| Inhibition of N-type Ca2+ Current, % Inhibition at 10 μM ([1]; 10 μM) | IC50 [2] | Compound | Inhibition of K+ Current, % Inhibition at 10 μM [3] | Inhibition of Na+ Current, % Inhibition at 10 μM [4] | other results |
| --- | --- | --- | --- | --- | --- |
|  | 740 nM | COc1ccc(N2CCN(C(=O)[C@H](Cc3ccc(OCc4ccccc4)cc3)NC(=O)[C@H](CC(C)C)NC(=O)N3CCCCCC3)CC2)cc1 [Example 264, [S-(R*,R*)]-Azepane-1-carboxylic acid (1-{1-(4-benzyloxy-benzyl)-2-[4-(4-methoxy-phenyl)-piperazin-1-yl]-2-oxo-ethylcarbamoyl}-3-methyl-butyl)-amide] |  |  |  |
|  | 1000 nM | CC(C)C[C@H](NC(=O)N1CCCCCC1)C(=O)N[C@@H](Cc1ccc(OCc2ccccc2)cc1)C(=O)N1CCC(Cc2ccccc2)CC1 [Example 265, [S-(R*,R*)]-Azepane-1-carboxylic acid {1-[1-(4-benzyloxy-benzyl)-2-(4-benzyl-piperidin-1-yl)-2-oxo-ethylcarbamoyl]-3-methyl-butyl}-amide] |  |  |  |
|  | 1800 nM | CC(C)C[C@H](NC(=O)N1CCCCCC1)C(=O)N[C@@H](Cc1ccc(OCc2ccccc2)cc1)C(=O)NC(C)(C)CO [Example 266, Azepane-1-carboxylic acid {(S)-1-[(S)-2-(4-benzyloxy-phenyl)-1-(2-hydroxy-1,1-dimethyl-ethylcarbamoyl)-ethylcarbamoyl]-3-methyl-butyl}-amide] |  |  |  |
|  | 4400 nM | Cc1cc(NC(=O)[C@H](Cc2ccc(OCc3ccccc3)cc2)NC(=O)[C@H](CC(C)C)NC(=O)N2CCCCCC2)c(C)cc1O [Example 267, [S-(R*,R*)]-Azepane-1-carboxylic acid {1-[2-(4-benzyloxy-phenyl)-1-(4-hydroxy-2,5-dimethyl-phenylcarbamoyl)-ethylcarbamoyl]-3-methyl-butyl}-amide] |  |  |  |
|  | 2900 nM | CC(C)C[C@H](NC(=O)N1CCCCCC1)C(=O)N[C@@H](Cc1ccc(OCc2ccccc2)cc1)C(=O)NCCCN1CCCC1 [Example 268, [S-(R*,R*)]-Azepane-1-carboxylic acid {1-[2-(4-benzyloxy-phenyl)-1-(3-pyrrolidin-1-yl-propylcarbamoyl)-ethylcarbamoyl]-3-methyl-butyl}-amide] |  |  |  |
|  | 2800 nM | CC(C)C[C@H](NC(=O)N1CCCCCC1)C(=O)N[C@@H](Cc1ccc(OCc2ccccc2)cc1)C(=O)Nc1cccc(O)c1 [Example 269, [S-(R*,R*)]-Azepane-1-carboxylic acid {1-[2-(4-benzyloxy-phenyl)-1-(3-hydroxy-phenylcarbamoyl)-ethylcarbamoyl]-3-methyl-butyl}-amide] |  |  |  |
|  | 1200 nM | CC(C)C[C@H](NC(=O)N1CCCCCC1)C(=O)N[C@@H](Cc1ccc(OCc2ccccc2)cc1)C(=O)N1CCN(C(c2ccccc2)c2ccccc2)CC1 [Example 270, [S-(R*,R*)]-Azepane-1-carboxylic acid {1-[2-(4-benzhydryl-piperazin-1-yl)-1-(4-benzyloxy-benzyl)-2-oxo-ethylcarbamoyl]-3-methyl-butyl}-amide] |  |  |  |
|  | 840 nM | CC(C)C[C@H](NC(=O)N1CCCCCC1)C(=O)N[C@@H](Cc1ccc(OCc2ccccc2)cc1)C(=O)NC1CCN(Cc2ccccc2)CC1 [Example 271, [S-(R*,R*)]-Azepane-1-carboxylic acid {1-[2-(4-benzyloxy-phenyl)-1-(1-benzyl-piperidin-4-ylcarbamoyl)-ethylcarbamoyl]-3-methyl-butyl}-amide] |  |  | inhibition at 1 µM ([2]; IMR-32): 70% |
